Molecules are shown by their SMILES. Where two headings read alike, the source gives them in different places.

For test [1], the system named is Hep G2 cells. Put plainly: ara ATP formation from (3H) labelled ara-M in infected Hep G2 cells. Particulars: Hep G2 cells infected with pCR78 containing viruses, incubated with (3H) labelled compound; Figure 6. Type of test: cell-based, human. As to the method:
(§1) The replication-defective, full length, artificial retroviruses containing the AFP/VZV TK chimaera were used to infect a human hepatoma cell line called Hep G2 (ATCC KS 8065). Following infection and selection on 1mg geneticin/ml (Trade mark), the cells were assayed for VZV TK activity. In addition, the cells were incubated in the presence of (^3H) labeled 9-(B-D-arabinofuranosyl)-6-methoxy-9H purine (designated as ara-M in the following tables and figures) with subsequent measurement of ara ATP. Finally, cells were cultured in the presence of the above mentioned compound and the IC50 - (growth inhibition) was determined. Cells infected with no virus or N2 virus act as control samples for these experiments. N2 virus contain no VZV TK genetic material.
9-(B-D-arabinofuranosyl)-6-methoxy-9H purine (designated as ara-m) can be selectively monophosphorylated by VZV TK with subsequent anabolism to cytotoxic ara ATP.

The test system of test [2] is Hep G2 cells. Put plainly: Growth inhibition of Hep G2 cells (cell number and DNA content, 5 days). Type of test: cell-based. To be noted: Homo sapiens, read-out: IC50 (50% growth inhibition). As to the method: as §1
Hep G2 cells infected with the replication-defective, full length, artificial retroviruses containing the AFP/VZV TK (pCR78) chimaera were incubated in the presence of varying amounts of 9-(B-D-arabinofuranosyl)-6-methoxy-9H purine for 5 days and growth inhibition determined as measured by cell number and DNA content.

As for `COc1ncnc2c1ncn2[C@@H]1O[C@H](CO)[C@@H](O)[C@@H]1O` [9-(β-D-arabinofuranosyl)-6-methoxy-9H-purine], the “(3H) araATP formation” value with Hep G2 cells [1] was “significant amounts”. Further, the IC50 is 175 µM with Hep G2 cells [2] (HepG2, 120 h, Hep G2 cells infected with AFP/VZV TK (pCR78) retrovirus, 5 days); greater than 2000 µM with Hep G2 cells [2] (HepG2, 120 h, Hep G2 cells infected with N2 virus (no VZV TK), 5 days); greater than 2000 µM in the test with Hep G2 cells [2] (HepG2, 120 h, control Hep G2 cells, no virus, 5 days); roughly 40 µM with Hep G2 cells [2] (HepG2, single cell clones of Hep G2 cells containing the AFP/VZV TK (pCR78) chimaera).

By IC50 is commonly meant the concentration that inhibits the measured activity by half.

Values taken from patent EP0415731B1, “Novel entities for cancer therapy” (THE WELLCOME FOUNDATION LIMITED, priority 1989, dated 1991).
